# Laboratory results taken from US10633348B2, “Methods to treat lymphoplasmacytic lymphoma” (Dana-Farber Cancer Institute, Inc., priority 2013, dated 2020).
# Key:
# OCI-Ly3 = experiment: CellTiter-Glo cell viability assay; assay type: cell-based
# Method: (§1) CellTiter-Glo® Luminescent cell viability assay (Promega) was used to assess cell survival following treatment with the compounds described. Cells were seeded into 384 well plates with the EL406 Combination Washer Dispenser (BioTek Instruments, Inc.) and the compounds were injected into the cells culture media with the JANUS Automated Workstation (PerkinElmer Inc.). Cells were treated with a series diluted inhibitors (20˜0.04 μM) for 72 hours at 37° C. Luminescent measurement is performed using the 2104 Envision® Multilabel Reader (PerkinElmer Inc.).
# MWCL-1 = experiment: CellTiter-Glo cell viability assay; assay type: cell-based
# Method: as §1
# OCI-Ly19 = experiment: CellTiter-Glo cell viability assay; assay type: cell-based; conditions: Homo sapiens
# Method: as §1
# Ramos = experiment: CellTiter-Glo cell viability assay; assay type: cell-based; conditions: Homo sapiens
# Method: as §1
# BCWM.1 = experiment: CellTiter-Glo cell viability assay; assay type: cell-based
# Method: as §1
# HCK = assay type: biochemical; conditions: read-out: HCK IC50 (nM) Inv
# Source text: The in vitro activity of the compounds described herein in inhibiting TAK1, HCK and other kinases were obtained using an Invitrogen Select Screening assay as known in the art. The IC50 values determined from this assay are shown below.
# TMD8 = experiment: CellTiter-Glo cell viability assay; assay type: cell-based; conditions: Homo sapiens, 72 hours
# Method: as §1
# OCI-Ly7 = experiment: CellTiter-Glo cell viability assay; assay type: cell-based; conditions: Homo sapiens, 72 hours
# Method: as §1
EC50 (OCI-Ly7) [nM],Structure (SMILES),"EC50 (OCI-Ly3; Homo sapiens, OCI-Ly3, 72 h) [µM]",EC50 (MWCL-1; 72 h) [nM],"EC50 (OCI-Ly19; OCI-LY19, 72 hours) [nM]",EC50 (Ramos; 72 hours) [µM],"EC50 (BCWM.1; BCWM1, 72 h) [nM]",IC50 (HCK) [nM],"EC50 (OCI-Ly19; OCI-LY19, 72 h) [nM]",EC50 (Ramos; 72 h) [µM],EC50 (OCI-Ly3; 72 hours) [µM],EC50 (MWCL-1; 72 hours) [nM],EC50 (BCWM.1; 72 hours) [nM],EC50 (TMD8) [nM]
,"CCN1CCN(Cc2ccc(NC(=O)c3ccc(C)c(Oc4cc(NC)ncn4)c3)cc2C(F)(F)F)CC1 [(A-1), N-(4-((4-ethylpiperazin-1-yl)methyl)-3-(trifluoromethyl)phenyl)-4-methyl-3-((6-(methylamino)pyrimidin-4-yl)oxy)benzamide]",11.5,3990,4980,9.48,1720,275,,,,,,
,"CCC(=O)Nc1cc(Oc2cc(C(=O)Nc3ccc(CN4CCN(CC)CC4)c(C(F)(F)F)c3)ccc2C)ncn1 [(A-2), N-(4-((4-ethylpiperazin-1-yl)methyl)-3-(trifluoromethyl)phenyl)-4-methyl-3-((6-propionamidopyrimidin-4-yl)oxy)benzamide]",2.96,1350,,,42,,1750,5.34,,,,
,"CCN1CCN(Cc2ccc(NC(=O)c3ccc(C)c(Oc4cc(NC(=O)C5CC5)ncn4)c3)cc2C(F)(F)F)CC1 [(A-3), 3-((6-(cyclopropanecarboxamido)pyrimidin-4-yl)oxy)-N-(4-((4-ethylpiperazin-1-yl)methyl)-3-(trifluoromethyl)phenyl)-4-methylbenzamide]",0.48,910,,,50,,600,2.68,,,,
,"CCN1CCN(Cc2ccc(NC(=O)c3ccc(C)c(Oc4cc(Nc5ccn[nH]5)ncn4)c3)cc2C(F)(F)F)CC1 [(A-6), 3-((6-((1H-pyrazol-5-yl)amino)pyrimidin-4-yl)oxy)-N-(4-((4-ethylpiperazin-1-yl)methyl)-3-(trifluoromethyl)phenyl)-4-methylbenzamide]",4.77,118,,,86,,302,3.08,,,,
,"CCN1CCN(Cc2ccc(NC(=O)c3ccc(C)c(Oc4cc(Nc5cn[nH]c5)ncn4)c3)cc2C(F)(F)F)CC1 [(A-7), 3-((6-((1H-pyrazol-4-yl)amino)pyrimidin-4-yl)oxy)-N-(4-((4-ethylpiperazin-1-yl)methyl)-3-(trifluoromethyl)phenyl)-4-methylbenzamide]",4,71,,,48,,192,3.02,,,,
,"CCN1CCN(Cc2ccc(NC(=O)c3ccc(C)c(Oc4cc(NNC(C)=O)ncn4)c3)cc2C(F)(F)F)CC1 [(A-9), 3-((6-(2-acetylhydrazinyl)pyrimidin-4-yl)oxy)-N-(4-((4-ethylpiperazin-1-yl)methyl)-3-(trifluoromethyl)phenyl)-4-methylbenzamide]",19.6,18700,> 20000,> 20,10800,> 10000,,,> 20,> 20000,6460,
,"CCN1CCN(Cc2ccc(NC(=O)c3ccc(C)c(Oc4cc(NC5CNC5)ncn4)c3)cc2C(F)(F)F)CC1 [(A-10), 3-((6-(azetidin-3-ylamino)pyrimidin-4-yl)oxy)-N-(4-((4-ethylpiperazin-1-yl)methyl)-3-(trifluoromethyl)phenyl)-4-methylbenzamide]",,24800,> 20000,> 20,,> 10000,,,,> 20000,,
,"CCN1CCN(Cc2ccc(NC(=O)c3ccc(C)c(Oc4cc(NN(C)C)ncn4)c3)cc2C(F)(F)F)CC1 [(A-11), 3-((6-(2,2-dimethylhydrazinyl)pyrimidin-4-yl)oxy)-N-(4-((4-ethylpiperazin-1-yl)methyl)-3-(trifluoromethyl)phenyl)-4-methylhenzamide]",> 20,> 20000,> 20000,> 20,19700,> 10000,,,,,,
,"CCN1CCN(Cc2ccc(NC(=O)c3ccc(C)c(Oc4cc(Nc5ccn(C)n5)ncn4)c3)cc2C(F)(F)F)CC1 [(A-12), N-(4-((4-ethylpiperazin-1-yl)methyl)-3-(trifluoromethyl)phenyl)-4-methyl-3-((6-((1-methyl-1H-pyrazol-3-yl)amino)pyrimidin-4-yl)oxy)benzamide]",,75,,,38,,209,2.96,,71,71,
,"CCN1CCN(Cc2ccc(NC(=O)c3ccc(C)c(Oc4cc(NC5COC5)ncn4)c3)cc2C(F)(F)F)CC1 [(A-13), N-(4-((4-ethylpiperazin-1-yl)methyl)-3-(trifluoromethyl)phenyl)-4-methyl-3-((6-(oxetan-3-ylamino)pyrimidin-4-yl)oxy)benzamide]",1.2,1760,,,,,2280,3.26,1.73,2860,,
1030,"CCN1CCN(Cc2ccc(NC(=O)c3ccc(C)c(Oc4cc(Nc5cnoc5)ncn4)c3)cc2C(F)(F)F)CC1 [(A-16), N-(4-((4-ethylpiperazin-1-yl)methyl)-3-(trifluoromethyl)phenyl)-3-((6-(isoxazol-4-ylamino)pyrimidin-4-yl)oxy)-4-methylbenzamide]",,1710,777,1.31,610,,,,,,,856
,C=CC(=O)NNc1cc(Oc2cc(C(=O)Nc3ccc(CN4CCN(CC)CC4)c(C(F)(F)F)c3)ccc2C)ncn1 [(A-18)],,4090,,,1980,,2780,7.24,,6740,3750,
1120,"Cc1ccc(C(=O)Nc2cccc(C(C)(C)C#N)c2)cc1Oc1ncnc2[nH]ccc12 [(I-11), 3-((7H-pyrrolo[2,3-d]pyrimidin-4-yl)oxy)-N-(3-(2-cyanopropan-2-yl)phenyl)-4-methylbenzamide]",9.69,1440,,3.89,4950,,,,,,,3460

Structure (SMILES),EC50 (OCI-Ly7) [nM],"EC50 (OCI-Ly3; Homo sapiens, OCI-Ly3, 72 h) [µM]",EC50 (MWCL-1; 72 h) [nM],"EC50 (OCI-Ly19; OCI-LY19, 72 hours) [nM]",EC50 (Ramos; 72 hours) [µM],"EC50 (BCWM.1; BCWM1, 72 h) [nM]",IC50 (HCK) [nM],"EC50 (OCI-Ly19; OCI-LY19, 72 h) [nM]",EC50 (Ramos; 72 h) [µM],EC50 (OCI-Ly3; 72 hours) [µM],EC50 (MWCL-1; 72 hours) [nM],EC50 (BCWM.1; 72 hours) [nM],EC50 (TMD8) [nM]
"CCN1CCN(Cc2ccc(NC(=O)c3ccc(C)c(Oc4ccnc(Nc5cnoc5)n4)c3)cc2C(F)(F)F)CC1 [(A-15), N-(4-((4-ethylpiperazin-1-yl)methyl)-3-(trifluoromethyl)phenyl)-3-((2-(isoxazol-4-ylamino)pyrimidin-4-yl)oxy)-4-methylbenzamide]",786,,718,,,185,,307,4.68,,,,392
